# Target: T1, human M4 receptor (hM4) (Homo sapiens, UniProt P08173)
# T1 construct: gene CHRM4
# T1 sequence (P08173 1-479): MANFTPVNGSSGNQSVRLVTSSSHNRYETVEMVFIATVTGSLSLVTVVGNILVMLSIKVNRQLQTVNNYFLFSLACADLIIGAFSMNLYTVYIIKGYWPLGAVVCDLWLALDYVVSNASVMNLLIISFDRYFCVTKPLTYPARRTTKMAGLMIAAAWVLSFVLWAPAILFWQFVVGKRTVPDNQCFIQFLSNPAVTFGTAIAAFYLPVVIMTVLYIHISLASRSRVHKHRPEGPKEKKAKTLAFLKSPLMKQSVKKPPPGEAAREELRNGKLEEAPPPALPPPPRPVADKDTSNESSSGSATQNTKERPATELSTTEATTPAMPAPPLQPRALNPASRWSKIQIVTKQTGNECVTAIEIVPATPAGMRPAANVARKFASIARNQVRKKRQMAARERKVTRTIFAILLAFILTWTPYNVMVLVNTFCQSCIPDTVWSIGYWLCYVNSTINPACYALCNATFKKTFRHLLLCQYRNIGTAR
# Assay: cADDis cAMP sensor FLIPR assay, HEK293 hM4, decrease of forskolin-stimulated cAMP
# Assay type: cell-based
# Settings: read-out: HEK-293, hM4, cAMP (48 h) / Gi pEC50 /slope (converted)
# Excerpt: cADDis cAMP sensor FLIPR assay, HEK293 hM4, decrease of forskolin-stimulated cAMP on human M4 receptor (hM4)
row,SMILES,EC50 [nM]
1,"CCOC(=O)N1CC2(CCC(N3CCC(N(CC)C(C)=O)CC3)C2)C1 (stereo not drawn) [compound 6, compound-6]",0.407
2,"COC(=O)N1CCC(N2CCC(n3c(=O)n(C)c4ccccc43)CC2)CC1 [compound 110, compound-110]",0.646
3,C[N+](C)(C)CC#CCN1CCCC1=O [oxotremorine-M],1.2

# — publication PMC12086361, “Downstream Signaling of Muscarinic M4 Receptors Is Regulated by Receptor Density and Cellular Environment” (Pharmacology Research & Perspectives, 2025)
